Test results reported in US20140230081A1, “POLYNUCLEOTIDE, POLYPEPTIDE, ANIMAL MODEL AND METHOD FOR THE DEVELOPMENT OF COMPLEMENT SYSTEM MODULATORS” (BAYER INTELLECTUAL PROPERTY GMBH, priority 2011, published 2014).
pIC50: −log10 of the molar value. Where “and” joins values, the source holds several entries; their conditions need not be identical. Equal values may be shown once. Read-outs that look alike come from different tables or passages of the source.

How the values were obtained:
complement activation [1] = settings: cited from earlier work
[2] = test system: porcine-to-human xenograft; settings: perfused with human blood; cited from earlier work
complement activation [3] = settings: cited from earlier work; remark: listed apart in the source
IL10 expression = test: CLP model in hamster, IL10 expression in tissues (TaqMan RT-PCR); format: in vivo, Syrian Hamster; settings: CLP+0.5 mg/kg, CLP+2.5 mg/kg and CLP+Alzet vs. CLP+vehicle, dose dependently
Procedure: (§1) Hamster tissues were pulverized by grinding with liquid nitrogen. Total RNA was extracted, DNase I digestion was performed to remove residual genomic DNA and the RNA were reverse transcribed using random hexamer primers. Quantitative TaqMan RT-PCR analysis was performed using the Applied Biosystems PRISM 7900 sequence detection system. The thermal protocol was set to 2 min at 50° C., followed by 10 min at 95° C. and by 40 cycles of 15 s at 95° C. and 1 min at 60° C. Results were normalized to L32 controls, and relative expression was calculated according to the following formula: relative expression=2̂(15−(CT(probe)−CT(L32))). The parameter CT is defined as the cycle number at which the amplification plot passes a fixed threshold above baseline.
(§2) Midline incision was made in the Linea Alba of the peritoneal cavity and the cecum was exposed. 50% of the cecum was tied off by placing a tight ligature around the cecum. For the CLP model two puncture wounds were made with an 18-gauge needle into the cecum and small amounts of cecal contents were expressed through the wounds, situs was flushed with 0.5 mL sterile saline. Finally, the cecum was replaced into the peritoneal cavity and the laparotomy site was closed. The sham group underwent abdominal surgery; the cecum was exposed and replaced without ligation or puncture of the cecum. Situs was flushed with 0.5 mL sterile saline and the laparotomy site was closed.
C5aR Antagonist was dissolved in DMSO and diluted with sterile saline solution. The final solution contained 5% DMSO. […]
(§3) Total RNA was isolated from hamster tissues with the Trizol-Reagent protocol according to the manufacturer's specifications (Invitrogen; USA). […] For relative quantitation of the mRNA distribution of IL10, IL6 and IL1b, total RNA from each sample was first reverse transcribed. […] For relative quantitation of the distribution of IL10, IL6 or IL1b mRNA the Applied Biosystems PRISM 7900 sequence detection system was used according to the manufacturer's specifications and protocols. PCR reactions were set up to quantitate IL 10, IL6 or IL1b and the housekeeping gene L32. […]

IL6 expression = test: CLP model in hamster, IL6 expression in tissues (TaqMan RT-PCR); format: in vivo, Syrian Hamster; settings: CLP+0.5 mg/kg, CLP+2.5 mg/kg and CLP+Alzet vs. CLP+vehicle, dose dependently
Procedure: as §1, with “baseline. […]” for “baseline.”
as §3

IL1b expression = test: CLP model in hamster, IL1b expression in tissues (TaqMan RT-PCR); format: in vivo, Syrian Hamster; settings: CLP+0.5 mg/kg, CLP+2.5 mg/kg and CLP+Alzet vs. CLP+vehicle; dose dependently; FIG. 11
Procedure: as §1, with “baseline. […]” for “baseline.”
as §3

white blood cell counts = test: CLP model in hamster, hemogram (white blood cell counts of EDTA whole blood); format: in vivo, Syrian Hamster; settings: CLP+0.5 mg/kg, CLP+2.5 mg/kg and CLP+Alzet compared to CLP+vehicle; FIG. 24
Procedure: Blood samples were obtained under light Isoflurane anesthesia from the cavernous sinus with a capillary at different time points/final exsanguination by cannulation of the carotid artery after 24 hr to allow measurements of differential blood counts. Blood samples for basal blood cell counts were collected from the cavernous sinus one week before study begin. Blood was collected into EDTA tubes and blood cell counts were performed on an automated cell counter.
as §2
C5aR Antagonist was dissolved in DMSO and diluted with sterile saline solution. The final solution contained 5% DMSO. […] The study medication was given s.c. 30 min before and 2 h after CLP surgery. […]

hamster C5aR1 [4] = test: Receptor activation of hamster C5aR1, reduction by antagonist; format: cell-based; settings: activated by human C5a ligand
C5aR [5] = settings: cynomolgus monkey neutrophils; cited from earlier work
C5aR [6] = settings: gerbil neutrophils; cited from earlier work
[7] = target: hamster C5aR1 polypeptide (hamster); test: cell-based or functional assay
hamster C5aR1 polypeptide (hamster), sequence (chain, as listed by the source limits assumed): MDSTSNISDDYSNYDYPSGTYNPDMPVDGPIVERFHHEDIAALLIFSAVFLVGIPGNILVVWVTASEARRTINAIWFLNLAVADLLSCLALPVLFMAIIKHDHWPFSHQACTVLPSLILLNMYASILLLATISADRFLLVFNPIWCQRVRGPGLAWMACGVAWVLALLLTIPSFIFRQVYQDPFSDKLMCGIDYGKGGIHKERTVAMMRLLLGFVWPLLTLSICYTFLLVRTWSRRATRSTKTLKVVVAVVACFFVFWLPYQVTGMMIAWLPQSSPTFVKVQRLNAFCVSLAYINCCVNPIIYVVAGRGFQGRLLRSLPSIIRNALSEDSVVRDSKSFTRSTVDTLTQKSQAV

[8] = test system: classical complement pathway; settings: cited from earlier work
hamster C5aR1 [9] = test: C5aR1 signalling via Calcium release (luminescence) in CHOmtCly_hamster-C5aR1/Galpha16 cells; format: cell-based; settings: peptide at 7 μM; three CHOmtCly_hamster-C5aR1/Galpha16 cell lines, respectively; measured for 60 seconds; listed as Bachem peptide 83462
Procedure: CHO K1 cell lines expressing mitochondrial Clytin (CHOmtCly) were co-transfected with the expression vector pcDNA3 harbouring the cDNA of hamster C5aR1 und pcDNA3-Galpha16 to allow the measurement of C5aR1 signalling via Calcium release (generated cells are named CHOmtCly_hamster-C5aR1/Galpha16). Control cells (CHOmtCly_pcDNA3) were generated by transfection of CHOmtCly cells with a corresponding amount of empty pcDNA3 vector only. In brief, 10^6 cells were transfected with 2 μg DNA by use of the Nucleofector (Amaxxa) program U-27. Transfected cells were seeded in 384-well MTP with a density of 250 cells per well. After 24 h incubation at 37° C. selection media containing a final concentration of 1 mg/ml G418 was added. After one week of selection plates were duplicated and tested for C5aR1 signalling. Cells were loaded with Coelenterazine for 3 h, than buffer or the C-terminal peptide of human C5a (Bachem H3462) was added at a final concentration of 7 μM. Luminescence (RLU) was measured for 60 seconds.
For activity measurement, three CHOmtCly_hamster-C5aR1/Galpha16 cell lines and three CHOmtCly cDNA3 cell lines were analyzed, respectively.
Target sequence in this assay (as listed by the source): as the sequence (chain, as listed by the source limits assumed) above
Target sequence in this assay (P30679 whole entry partner): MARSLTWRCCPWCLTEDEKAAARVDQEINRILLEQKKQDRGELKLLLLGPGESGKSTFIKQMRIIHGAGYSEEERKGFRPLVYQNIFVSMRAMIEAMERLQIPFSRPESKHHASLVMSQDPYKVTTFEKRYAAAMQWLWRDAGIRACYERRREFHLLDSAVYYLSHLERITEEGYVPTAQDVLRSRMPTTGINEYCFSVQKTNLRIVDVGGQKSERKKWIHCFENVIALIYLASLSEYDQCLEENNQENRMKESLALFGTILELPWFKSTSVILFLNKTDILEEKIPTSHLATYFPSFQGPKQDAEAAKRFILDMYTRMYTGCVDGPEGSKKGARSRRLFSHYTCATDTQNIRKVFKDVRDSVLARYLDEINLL

[10] = test system: complement-mediated tissue injury; settings: models of ischemia-reperfusion and animal models of human acute and chronic inflammatory diseases; cited from earlier work
[11] = in vivo; cited from earlier work

Molecule: CC[C@H](C)[C@H](N)C(=O)N[C@H]1CSSC[C@@H](C(=O)N[C@H](C(N)=O)[C@@H](C)O)NC(=O)[C@H](CCCN=C(N)N)NC(=O)[C@H](Cc2cnc[nH]2)NC(=O)[C@H](Cc2cnc[nH]2)NC(=O)CNC(=O)[C@H](Cc2c[nH]c3ccccc23)NC(=O)[C@H](CC(=O)O)NC(=O)[C@H](CCC(N)=O)NC(=O)[C@H](C(C)C)NC(=O)[C@H](C(C)C)NC1=O [Compstatin]
- complement activation in human serum (complement activation [1]): inhibit
- lifetime of a porcine-to-human xenograft [2]: prolongs
- side effects (complement activation [3]; in vivo): without significant side effects
- heparine and protamine-induced complement activation (complement activation [3]; primates): inhibit

Molecule: COc1ccc2c(c1)C(C(=O)N(Cc1ccc(N(C)C)cc1)c1ccc(C(C)C)cc1)CCC2.Cl (stereo not drawn) [W-54011]
- expression of IL10 in kidney tissue (IL10 expression; FIG. 6): decreased
- expression of IL10 in LV (left ventricle) tissue (IL10 expression; FIG. 7): decreased
- expression of IL10 in lung tissue (IL10 expression; FIG. 8): decreased
- expression of IL6 in LV (left ventricle) tissue (IL6 expression; FIG. 9): decreased
- expression of IL6 in lung tissue (IL6 expression; FIG. 10): decreased
- expression of IL1b in LV (left ventricle) tissue (IL1b expression): decreased
- WBC (white blood cell counts) (white blood cell counts): higher
- receptor activation of hamster C5aR1 (hamster C5aR1 [4]): can be reduced
- inhibition of C5a-mediated responses (C5aR [5]): inhibits
- inhibition of C5a-mediated responses (C5aR [6]): inhibits

Molecule: C-terminal peptide of human C5a (Bachem H3462) (from UniProt P01031 742-751)
- Luminescence (RLU), calcium release via mitochondrial Clytin, peptide at 7 µM, measured for 60 seconds; cell line 1 of 3 [7]: 248000 RLU
- Luminescence (RLU), calcium release via mitochondrial Clytin, peptide at 7 µM, measured for 60 seconds; cell line 2 of 3 [7]: 243000 RLU
- Luminescence (RLU), calcium release via mitochondrial Clytin, peptide at 7 µM, measured for 60 seconds; cell line 3 of 3 [7]: 203000 RLU

Molecule: CEGPFGPRHDLTFCW [2J]
- pIC50 [8]: 5.22 to 5.70

Molecule: H3462: C-terminal peptide of human C5a (Bachem H3462) (ISHKDMQLGR)
- Luminescence (RLU) on stimulation (hamster C5aR1 [9]): 247943 RLU and 243143 RLU and 203151 RLU

Molecule: sCR1: soluble version of recombinant human CR1 lacking the transmembrane and cytoplasmic domains
- complement-mediated tissue injury [10]: reduce
- half-life in circulation [11]: short
